Measurements from patent US9273057B2 (Bristol-Myers Squibb Company, priority 2012, dated 2016).
Where a name gives a salt, the structure may show the parent alone.

target: CK2A1 (CK2α/β) (Homo sapiens, UniProt P68400); experiment: CK2 kinase assay, CK2A1 (CK2α/β); assay type: biochemical; settings: Table A; read-out: CK2A1 (CK2α/β) (IC50)
Sequence (P68400 whole entry, species assumed): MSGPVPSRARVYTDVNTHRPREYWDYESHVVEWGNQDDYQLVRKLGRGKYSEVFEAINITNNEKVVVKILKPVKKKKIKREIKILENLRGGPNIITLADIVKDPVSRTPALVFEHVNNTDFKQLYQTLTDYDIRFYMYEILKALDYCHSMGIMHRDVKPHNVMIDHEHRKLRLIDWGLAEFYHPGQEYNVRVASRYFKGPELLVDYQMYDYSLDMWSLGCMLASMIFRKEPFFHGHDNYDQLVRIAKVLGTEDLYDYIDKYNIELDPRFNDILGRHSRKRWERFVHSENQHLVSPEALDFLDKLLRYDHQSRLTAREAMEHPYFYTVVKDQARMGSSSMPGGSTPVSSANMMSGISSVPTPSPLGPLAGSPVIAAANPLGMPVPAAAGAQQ
Sequence (P67870 whole entry partner, species assumed): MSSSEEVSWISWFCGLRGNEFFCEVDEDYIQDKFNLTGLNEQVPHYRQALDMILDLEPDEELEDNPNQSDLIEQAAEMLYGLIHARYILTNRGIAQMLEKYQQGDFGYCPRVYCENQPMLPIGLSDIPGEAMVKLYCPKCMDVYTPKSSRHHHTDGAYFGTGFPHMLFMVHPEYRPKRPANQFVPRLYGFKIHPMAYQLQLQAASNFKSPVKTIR

IC50 [nM] | Compound
1.29 | N#Cc1cc(Nc2nc(NC3CC3)c3ncc(C#N)n3n2)c(Cl)c(N2CC[C@@H](N3CCOCC3)[C@H](O)C2)c1 (racemic) [Example 306, (+/−)-2-((2-chloro-5-cyano-3-((3R,4R)-3-hydroxy-4-morpholinopiperidin-1-yl)phenyl)amino)-4-(cyclopropylamino)imidazo[2,1-f][1,2,4]triazine-7-carbonitrile]
1.06 | CN[C@@H]1CCN(c2cc(C#N)cc(Nc3nc(NC4CC4)c4ncc(C#N)n4n3)c2Cl)C[C@H]1O (racemic) [Example 186, (+/−)-2-((2-chloro-5-cyano-3-((3R,4R)-3-hydroxy-4-(methylamino)piperidin-1-yl)phenyl)amino)-4-(cyclopropylamino)imidazo[2,1-f][1,2,4]triazine-7-carbonitrile]
0.72 | N#Cc1cc(Nc2nc(NC3CC3)c3ncc(C#N)n3n2)c(Cl)c(N2CC[C@@H](NC3COC3)[C@H](O)C2)c1 (racemic) [Example 301, (+/−)2-((2-chloro-5-cyano-3-((3R,4R)-3-hydroxy-4-(oxetan-3-ylamino)piperidin-1-yl)phenyl)amino)-4-(cyclopropylamino)imidazo[2,1-f][1,2,4]triazine-7-carbonitrile, HCl]
1.25 | COC(=O)N[C@@H]1CCN(c2cc(C#N)cc(Nc3nc(NC4CC4)c4ncc(C#N)n4n3)c2Cl)C[C@H]1OC(=O)C1(N)CC1 [Example 194, (3R,4R)-1-(2-chloro-5-cyano-3-((7-cyano-4-(cyclopropylamino)imidazo[2,1-f][1,2,4]triazin-2-yl)amino)phenyl)-4-((methoxycarbonyl)amino)-3-piperidinyl 1-aminocyclopropanecarboxylate]
5.52 | N#Cc1cc(Nc2nc(NC3CC3)c3ncc(C#N)n3n2)c(Cl)c(N2CCC3C(CCN3[C@H]3COC[C@@H]3O)C2)c1 (mixture of isomers) [Example 451, (+/−)-2-((2-chloro-5-cyano-3-(1-((3S,4R)-4-hydroxytetrahydrofuran-3-yl)hexahydro-1H-pyrrolo[3,2-c]pyridin-5(6H)-yl)phenyl)amino)-4-(cyclopropylamino)imidazo[2,1-f][1,2,4]triazine-7-carbonitrile]
0.4 | COC(=O)N[C@H]1CCN(C2CN(c3cc(C#N)cc(Nc4nc(NC5CC5)c5ncc(C#N)n5n4)c3Cl)C2)C[C@@H]1O (racemic) [Example 154, (+/−) methyl ((3S,4S)-1-(1-(2-chloro-5-cyano-3-((7-cyano-4-(cyclopropylamino)imidazo [2,1-f][1,2,4]triazin-2-yl)amino)phenyl)-3-azetidinyl)-3-hydroxy-4-piperidinyl)carbamate]
0.61 | CCNc1nc(Nc2cc(C#N)cc(N3CC[C@@H](NC[C@H](C)O)[C@H](O)C3)c2Cl)nn2c(C#N)cnc12 [Example 377, 2-((2-chloro-5-cyano-3-((3R,4R)-3-hydroxy-4-(((S)-2-hydroxypropyl)amino)piperidin-1-yl)phenyl)amino)-4-(ethylamino)imidazo[2,1-f][1,2,4]triazine-7-carbonitrile]
0.68 | COC(=O)N[C@@H]1CN(c2cc(C#N)cc(Nc3nc(NC4CC4)c4ncc(C#N)n4n3)c2Cl)C[C@@H]1C (racemic) [Example 11, (+/−) methyl ((3S,4S)-1-(2-chloro-5-cyano-3-((7-cyano-4-(cyclopropylamino)imidazo [2,1-f][1,2,4]triazin-2-yl)amino)phenyl)-4-methyl-3-pyrrolidinyl)carbamate]
0.52 | CN1CCN(c2cc(C#N)cc(Nc3nc(NC4CC4)c4ncc(C#N)n4n3)c2Cl)CC1CN1CC(F)C1 (centres unmarked) [Example 708, 2-[(2-chloro-5-cyano-3-{3-[(3-fluoroazetidin-1-yl)methyl]-4-methylpiperazin-1-yl}phenyl)amino]-4-(cyclopropylamino)imidazo[2,1-f][1,2,4]triazine-7-carbonitrile]
0.7 | COC(=O)N[C@H]1CCN(c2cc(C#N)cc(Nc3nc(NC4CC4)c4ncc(C#N)n4n3)c2Cl)C[C@H]1NCC(F)F [Example 749, methyl ((3R,4S)-1-(2-chloro-5-cyano-3-((7-cyano-4-(cyclopropylamino)imidazo[2,1-f][1,2,4]triazin-2-yl)amino)phenyl)-3-((2,2-difluoroethyl)amino)piperidin-4-yl)carbamate]
0.44 | N#Cc1cc(Nc2nc(NC3CC3)c3ncc(C#N)n3n2)c(Cl)c(N2CCN(CC3CCCO3)CC2)c1 (centres unmarked) [Example 531, 2-((2-chloro-5-cyano-3-(4-((tetrahydrofuran-2-yl)methyl)piperazin-1-yl)phenyl)amino)-4-(cyclopropylamino)imidazo[2,1-f][1,2,4]triazine-7-carbonitrile]
1.12 | COC(=O)N[C@H]1CCN(c2cc(C#N)cc(Nc3nc(NC4CC4)c4ncc(C#N)n4n3)c2Cl)C[C@@H]1NC1COC1 (single isomer, unassigned) [Example 744]
8.02 | N#Cc1cc(Nc2nc(NC3CC3)c3ncc(C#N)n3n2)c(Cl)c(N2CCN(C3CCCC3F)CC2)c1 (centres unmarked) [Example 587, 2-({2-chloro-5-cyano-3-[4-(2-fluorocyclopentyl)piperazin-1-yl]phenyl}amino)-4-(cyclopropylamino)imidazo [2,1-f][1,2,4]triazine-7-carbonitrile]

The remaining lines, values behind:

Compound | IC50 [nM]
N#Cc1cc(Nc2nc(NC3CC3)c3ncc(C#N)n3n2)c(Cl)c(N2CCN(C3CN(C(=O)[C@H](O)C(F)(F)F)C3)CC2)c1 [Example 510, 2-{[2-chloro-5-cyano-3-(4-{1-[(2S)-3,3,3-trifluoro-2-hydroxypropanoyl]azetidin-3-yl}piperazin-1-yl)phenyl]amino}-4-(cyclopropylamino)imidazo[2,1-f][1,2,4]triazine-7-carbonitrile] | 4.24
N#Cc1cc(Nc2nc(NC3CC3)c3ncc(C#N)n3n2)c(Cl)c(C2(O)CCNC2)c1 (centres unmarked) [Example 651, 2-((2-chloro-5-cyano-3-(3-hydroxypyrrolidin-3-yl)phenyl)amino)-4-(cyclopropylamino)imidazo[2,1-f][1,2,4]triazine-7-carbonitrile] | 1.51
COC(=O)Nc1cc(Nc2nc(NC3CC3)c3ncc(C#N)n3n2)c(Cl)c(N2CC(N3CCC(OC)CC3)C2)c1 [Example 204, methyl (4-chloro-3-((7-cyano-4-(cyclopropylamino)imidazo[2,1-f][1,2,4]triazin-2-yl)amino)-5-(3-(4-methoxy-1-piperidinyl)-1-azetidinyl)phenyl)carbamate] | 0.87
CS(=O)(=O)NC(=O)CN1CCN(c2cc(C#N)cc(Nc3nc(NC4CC4)c4ncc(C#N)n4n3)c2Cl)CC1 [Example 607, 2-[4-(2-chloro-5-cyano-3-{[7-cyano-4-(cyclopropylamino)imidazo [2,1-f][1,2,4]triazin-2-yl]amino}phenyl)piperazin-1-yl]-N-methanesulfonamide-acetamide] | 0.56
CC(CC(C)c1cc(Cl)c(Nc2nc(NC3CC3)c3ncc(C#N)n3n2)cc1C#N)NCCC(F)(F)F (single isomer, unassigned) [Example 734, 2-[(2-chloro-5-cyano-4-{4-[(3,3,3-trifluoropropyl)amino]pentan-2-yl}phenyl)amino]-4-(cyclopropylamino) imidazo[2,1-f][1,2,4]triazine-7-carbonitrile] | 6.07
N#Cc1cc(Nc2nc(NC3CC3)c3ncc(C#N)n3n2)c(Cl)c(N2CCN(CC(O)CF)CC2)c1 (racemic) [Example 66, (+/−) 2-((2-chloro-5-cyano-3-(4-(3-fluoro-2-hydroxypropyl)-1-piperazinyl)phenyl)amino)-4-(cyclopropylamino) imidazo[2,1-f][1,2,4] triazine-7-carbonitrile] | 0.58
N#Cc1cc(CN2CCNC(=O)C2)c(Cl)c(Nc2nc(NC3CC3)c3ncc(C#N)n3n2)c1 [Example 666, 2-((2-chloro-5-cyano-3-((3-oxopiperazin-1-yl)methyl)phenyl)amino)-4-(cyclopropylamino)imidazo[2,1-f][1,2,4]triazine-7-carbonitrile] | 0.3
C[C@@H](O)Cn1nc(C#N)c2cc(Nc3nc(NC4CC4)c4ncc(C#N)n4n3)ccc21 [Example 393, (R)-2-((3-cyano-1-(2-hydroxypropyl)-1H-indazol-5-yl)amino)-4-(cyclopropylamino)imidazo[2,1-f][1,2,4]triazine-7-carbonitrile, HCl] | 0.43
CCNc1nc(Nc2cc(C#N)cc(N3CC[C@@H](NC(=O)OC)[C@H](OC(=O)[C@@H](N)CCCN)C3)c2Cl)nn2c(C#N)cnc12 [Example 811, (S)-(3R,4R)-1-(2-chloro-5-cyano-3-((7-cyano-4-(ethylamino)imidazo[2,1-f][1,2,4]triazin-2-yl)amino)phenyl)-4-((methoxycarbonyl)amino)piperidin-3-yl 2,5-diaminopentanoate dihydrochloride] | 1.88
N#Cc1cnc2c(NC3CC3)nc(Nc3cc(C(F)F)cc(C4CCN(C5COC5)CC4)c3Cl)nn12 [Example 407, 2-((2-chloro-5-(difluoromethyl)-3-(1-(3-oxetanyl)-4-piperidinyl)phenyl)amino)-4-(cyclopropylamino)imidazo[2,1-f][1,2,4]triazine-7-carbonitrile] | 1.76
CN1CCC(c2cc(C#N)cc(Nc3nc(NC4CC4)c4ncc(C#N)n4n3)c2Cl)CC1 [Example 209, 2-(2-chloro-5-cyano-3-(1-methylpiperidin-4-yl)phenylamino)-4-(cyclopropylamino)imidazo[1,2,f][1,2,4]triazine-7-carbonitrile] | 0.56
N#Cc1cc(Nc2nc(NC3CC3)c3ncc(C#N)n3n2)c(Cl)c(N2CCN(C(=O)CN3CCOCC3)CC2)c1 [Example 100, 2-((2-chloro-5-cyano-3-(4-(4-morpholinylacetyl)-1-piperazinyl)phenyl)amino)-4-(cyclopropylamino) imidazo[2,1-f][1,2,4] triazine-7-carbonitrile] | 0.55
N#Cc1cnc2c(NC3CC3)nc(Nc3cc(C(F)F)cc(N4CCC(O)CC4)c3Cl)nn12 [Example 255, 2-((2-chloro-5-(difluoromethyl)-3-(4-hydroxy-1-piperidinyl)phenyl)amino)-4-(cyclopropylamino)imidazo[2,1-f][1,2,4]triazine-7-carbonitrile] | 0.53
